From US12331035B2, “Bicyclic compound and use thereof” (SK BIOPHARMACEUTICALS CO., LTD., priority 2019, dated 2025) come the findings set out here.

Molecules are shown by their SMILES. pIC50: −log10 of the molar value.

As usually defined, the pIC50 is −log10 of the IC50, conventionally taken in molar units.

The target of the test is T1, PRMT5-MEP50 enzyme complex (Homo sapiens, UniProt O14744).
T1 construct: purchased BPS Bioscience (USA) 51045
Put plainly: In vitro PRMT5 enzyme activity assay (methylation of histone H4 arginine H4R3, ELISA absorbance at 450 nm). In kind it is biochemical. The note with it: S-adenosylmethionine, histone H4 peptide, 2 hours at room temperature, 8 points 10 μM to 0.128 nM. As to the method:
Method for Measuring Enzyme Activity
In vitro assay: PRMT5-MEP50 enzyme complex, cofactor S-adenosylmethionine (SAM) and histone H4 peptide were reacted in vitro, and methylation of arginine (H4R3) —which is the third amino acid of histone H4—was measured in order to measure the enzyme activity of PRMT5.
Reagents: PRMT5-MEP50 enzyme complex (Catalog No. 51045), blocking buffer (52100-B), histone methyltransferase reaction buffer 2 (4×HMT assay buffer 2, Catalog No. 52170), and primary antibody (primary antibody 4-3, Catalog No. 52150) were purchased from BPS Bioscience (USA). The histone H4 peptide (1-20 amino acids) was custom made by Komabiotech (Korea) and used. S-adenosylmethionine was purchased from NEB (New England Biolabs, USA, Catalog No. B9003S). Plates for coating histone H4 peptide, washing buffer and color development reagent were purchased from the following vendors: Plate (Immobilizer™-Amino Plate, NUNC, Denmark, Catalog No. 436023), carbonate-bicarbonate buffer (Sigma-Aldrich, USA, Catalog No. C3041), washing buffer (10×TBST, Biosesang, Korea, Catalog No. T2005), TMB ELISA substrate (Abcam, UK, Catalog No. ab210902), horseradish peroxidase (HRP)-conjugated antibody (Abcam, UK, Catalog No. ab6721).
Experimental procedure: The histone H4 peptide was diluted with carbonate-bicarbonate buffer and prepared to 100 μg/mL, and then dispensed onto the plate per 100 μL and reacted at 37° C. for 1 hour. PRMT5-MEP50 enzyme complex and S-adenosylmethionine were diluted with histone methyltransferase reaction buffer to prepare 5 μg/mL and 2 μM, respectively, and then 20 μL of PRMT5-MEP50 enzyme complex and 25 μL of S-adenosylmethionine were dispensed onto the plate prepared above. 5 μL of the compound diluted with 10% dimethyl sulfoxide solution was added thereto and reacted at room temperature for 2 hours (final volume=50 μL). The concentration of the compound was diluted 1:5 from 10 μM until the lowest concentration of 0.128 nM, and 8 points were used for the test. After preparing the primary antibody by diluting 1:2000 with blocking buffer, 100 μL was added to the plate and reacted at room temperature for 1 hour. After preparing horseradish peroxidase-conjugated antibody by diluting 1:10,000 with blocking buffer, 100 μL was added to the plate and reacted at room temperature for 1 hour. 100 μL of TMB substrate was added and reacted for 3 minutes at room temperature, and 100 μL of 1 N sulfuric acid was then added to terminate the reaction. Then, the absorbance at 450 nm was measured to calculate the IC50 value of the compound. (+++: 1 to 100 nM, ++: greater than 100 to 1,000 nM, +: greater than 1,000 to 10,000 nM)
(ELISA stands for enzyme-linked immunosorbent assay.)

T1 sequence (O14744 2-637 limits assumed): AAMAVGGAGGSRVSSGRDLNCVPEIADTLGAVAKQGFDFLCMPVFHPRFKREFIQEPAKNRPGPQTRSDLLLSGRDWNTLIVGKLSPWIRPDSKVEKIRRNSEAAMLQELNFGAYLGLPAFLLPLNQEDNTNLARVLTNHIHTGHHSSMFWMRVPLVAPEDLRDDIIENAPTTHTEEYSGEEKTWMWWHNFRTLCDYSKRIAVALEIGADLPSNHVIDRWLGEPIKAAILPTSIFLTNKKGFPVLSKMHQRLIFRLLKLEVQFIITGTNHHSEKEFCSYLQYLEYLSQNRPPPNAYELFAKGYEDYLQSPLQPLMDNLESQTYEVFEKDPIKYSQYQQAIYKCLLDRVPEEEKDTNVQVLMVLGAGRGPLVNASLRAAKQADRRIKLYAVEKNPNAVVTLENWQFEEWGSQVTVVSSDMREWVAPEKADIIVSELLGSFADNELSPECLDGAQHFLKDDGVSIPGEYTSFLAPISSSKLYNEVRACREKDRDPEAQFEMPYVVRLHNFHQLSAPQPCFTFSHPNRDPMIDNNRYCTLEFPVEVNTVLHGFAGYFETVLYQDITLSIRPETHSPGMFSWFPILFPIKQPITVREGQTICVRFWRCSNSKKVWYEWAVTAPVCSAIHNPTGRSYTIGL
T1 sequence (Q9BQA1 2-342 partner limits assumed): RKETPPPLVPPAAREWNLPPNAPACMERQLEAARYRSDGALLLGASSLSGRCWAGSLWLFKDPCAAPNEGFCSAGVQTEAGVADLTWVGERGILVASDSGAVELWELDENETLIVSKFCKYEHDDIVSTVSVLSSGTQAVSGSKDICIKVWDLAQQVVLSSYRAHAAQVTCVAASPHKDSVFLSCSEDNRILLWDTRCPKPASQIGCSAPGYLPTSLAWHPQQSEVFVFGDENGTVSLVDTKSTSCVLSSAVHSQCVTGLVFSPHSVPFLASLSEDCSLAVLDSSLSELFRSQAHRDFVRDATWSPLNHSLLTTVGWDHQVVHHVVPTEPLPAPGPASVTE

For the compound `CC(C)(C)OC(=O)N1CC=C(c2ccc3c(c2)CCN(C[C@H](O)CN2CCc4ccccc4C2)C3=O)CC1` [Example 56, tert-butyl 4-[2-[(2R)-3-(3,4-dihydro-1H-isoquinolin-2-yl)-2-hydroxy-propyl]-1-oxo-3,4-dihydroisoquinolin-6-yl]-3,6-dihydro-2H-pyridine-1-carboxylate], the pIC50 is 7.00 to 9.00.

As for `O=C1c2ccc(OC3CCOCC3)cc2CCN1C[C@H](O)CN1CCc2ccccc2C1` [Example 91, 2-[(2R)-3-(3,4-dihydro-1H-isoquinolin-2-yl)-2-hydroxy-propyl]-6-tetrahydropyran-4-yloxy-3,4-dihydroisoquinolin-1-one], the pIC50 is 7.00 to 9.00.

On to `COCCN(C)C1CCN(c2ccc3c(c2)CCN(C[C@H](O)CN2CCc4ccccc4C2)C3=O)CC1` [Example 120, 2-[(2R)-3-(3,4-dihydro-1H-isoquinolin-2-yl)-2-hydroxy-propyl]-6-[4-[2-methoxyethyl(methyl)amino]-1-piperidyl]-3,4-dihydroisoquinolin-1-one], for which the pIC50 is 7.00 to 9.00.

In the case of `O=C1c2ccc(N3CC(CO)C3)cc2CCN1C[C@H](O)CN1CCc2ccccc2C1` [Example 46, 2-[(2R)-3-(3,4-dihydro-1H-isoquinolin-2-yl)-2-hydroxy-propyl]-6-[3-(hydroxymethyl)azetidin-1-yl]-3,4-dihydroisoquinolin-1-one], the pIC50 is 6.00 to 7.00.

Compound `O=C1c2ccc(-c3ccc(F)nc3)cc2CCN1C[C@H](O)CN1CCc2ccccc2C1` [Example 15, 2-[(2R)-3-(3,4-dihydro-1H-isoquinolin-2-yl)-2-hydroxy-propyl]-6-(6-fluoro-3-pyridyl)-3,4-dihydroisoquinolin-1-one] showed a pIC50 of 7.00 to 9.00.

Compound `O=C(Nc1ccc2c(c1)CCN(C[C@H](O)CN1CCc3ccccc3C1)C2=O)c1cccnc1` [Example 26, N-[2-[(2R)-3-(3,4-dihydro-1H-isoquinolin-2-yl)-2-hydroxy-propyl]-1-oxo-3,4-dihydroisoquinolin-6-yl]pyridine-3-carboxamide] gave a pIC50 of 7.00 to 9.00.

`O=C1c2ccc(NCc3ccccc3)cc2CCN1C[C@H](O)CN1CCc2ccccc2C1` [Example 7, 6-(benzylamino)-2-[(2R)-3-(3,4-dihydro-1H-isoquinolin-2-yl)-2-hydroxy-propyl]-3,4-dihydroisoquinolin-1-one] had a pIC50 of 7.00 to 9.00.

In turn, `CC1CN(c2ccc3c(c2)CCN(C[C@H](O)CN2CCc4ccccc4C2)C3=O)CC(=O)N1C` (stereo partly drawn) [Example 103, 2-[(2R)-3-(3,4-dihydro-1H-isoquinolin-2-yl)-2-hydroxy-propyl]-6-(3,4-dimethyl-5-oxo-piperazin-1-yl)-3,4-dihydroisoquinolin-1-one] had a pIC50 of 7.00 to 9.00.

For the compound `O=C1c2ccc(NC3CCNCC3)cc2CCN1C[C@H](O)CN1CCc2ccccc2C1` [Example 34, 2-[(2R)-3-(3,4-dihydro-1H-isoquinolin-2-yl)-2-hydroxy-propyl]-6-(4-piperidylamino)-3,4-dihydroisoquinolin-1-one], the pIC50 was 5.00 to 6.00.

On to `CCC(=O)N1CCN(c2ccc3c(c2)CCN(C[C@H](O)CN2CCc4ccccc4C2)C3=O)CC1` [Example 69, 2-[(2R)-3-(3,4-dihydro-1H-isoquinolin-2-yl)-2-hydroxy-propyl]-6-(4-propanoylpiperazin-1-yl)-3,4-dihydroisoquinolin-1-one], for which the negative-log IC50 (pIC50) is 6.00 to 7.00.

On to `O=C1c2ccc(N3CCN(C4COC4)CC3)cc2CCN1C[C@H](O)CN1CCc2ccccc2C1` [Example 121, 2-[(2R)-3-(3,4-dihydro-1H-isoquinolin-2-yl)-2-hydroxy-propyl]-6-[4-(oxetan-3-yl)piperazin-1-yl]-3,4-dihydroisoquinolin-1-one], for which the pIC50 is 6.00 to 7.00.

`O=C1c2ccc(NCC3CCOC3)cc2CCN1C[C@H](O)CN1CCc2ccccc2C1` (stereo partly drawn) [Example 30, 2-[(2R)-3-(3,4-dihydro-1H-isoquinolin-2-yl)-2-hydroxy-propyl]-6-(tetrahydrofuran-3-ylmethylamino)-3,4-dihydroisoquinolin-1-one] gave a pIC50 of 7.00 to 9.00.
